According to article PMC4858680, “A platinum-based hybrid drug design approach to circumvent acquired resistance to molecular targeted tyrosine kinase inhibitors” (Scientific Reports, 2016):
Read-outs that look alike come from different tables or passages of the source.

Key:
[1] = target: T1, MERTK (Homo sapiens, UniProt Q12866); assay type: binding; details: for remaining binding at 10 µM: read-out: Percent control
T1 construct: purchased DiscoveRx KINOMEscan
T1 sequence (Q12866 21-999): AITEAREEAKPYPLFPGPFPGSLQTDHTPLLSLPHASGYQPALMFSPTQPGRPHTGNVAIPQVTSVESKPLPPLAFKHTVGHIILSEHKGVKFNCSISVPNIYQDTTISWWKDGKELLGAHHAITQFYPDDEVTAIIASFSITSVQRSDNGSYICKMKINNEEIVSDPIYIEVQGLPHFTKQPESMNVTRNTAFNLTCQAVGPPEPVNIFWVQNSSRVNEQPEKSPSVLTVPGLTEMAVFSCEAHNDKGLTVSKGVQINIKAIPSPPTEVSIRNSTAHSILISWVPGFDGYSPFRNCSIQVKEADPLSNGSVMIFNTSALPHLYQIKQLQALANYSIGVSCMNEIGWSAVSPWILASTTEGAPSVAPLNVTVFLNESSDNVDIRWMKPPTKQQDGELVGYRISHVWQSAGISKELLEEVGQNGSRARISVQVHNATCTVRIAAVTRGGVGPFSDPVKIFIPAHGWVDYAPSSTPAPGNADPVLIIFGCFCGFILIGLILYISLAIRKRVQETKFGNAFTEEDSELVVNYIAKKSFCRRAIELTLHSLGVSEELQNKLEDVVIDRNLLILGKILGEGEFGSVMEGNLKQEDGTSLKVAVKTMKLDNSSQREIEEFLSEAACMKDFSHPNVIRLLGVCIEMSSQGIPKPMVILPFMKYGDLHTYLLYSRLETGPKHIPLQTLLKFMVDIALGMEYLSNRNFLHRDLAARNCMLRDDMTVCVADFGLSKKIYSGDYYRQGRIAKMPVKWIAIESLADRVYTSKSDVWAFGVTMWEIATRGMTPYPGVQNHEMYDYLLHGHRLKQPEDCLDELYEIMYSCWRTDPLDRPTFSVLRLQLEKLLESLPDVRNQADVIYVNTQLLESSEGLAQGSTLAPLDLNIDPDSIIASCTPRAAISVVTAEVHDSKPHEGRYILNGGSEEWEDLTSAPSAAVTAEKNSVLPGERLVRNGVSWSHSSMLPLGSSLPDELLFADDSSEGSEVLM

[2] = target: T2, BLK (Homo sapiens, UniProt P51451); assay type: binding; details: for remaining binding at 10 µM: read-out: Percent control; for Percent control: BLK, 10 μM
T2 construct: purchased DiscoveRx KINOMEscan

[3] = target: T3, JAK2(JH1domain-catalytic) (Homo sapiens, UniProt O60674); assay type: binding; details: for remaining binding at 10 µM: read-out: Percent control; for Percent control: 10 μM
T3 construct: JAK2(JH1domain-catalytic); purchased DiscoveRx KINOMEscan

[4] = target: T4, HCK (Homo sapiens, UniProt P08631); assay type: binding; details: 10 μM
T4 construct: purchased DiscoveRx KINOMEscan

[5] = target: T5, FLT3(R834Q) (Homo sapiens, UniProt P36888, R834Q)
T5 sequence (P36888 27-993 R834Q): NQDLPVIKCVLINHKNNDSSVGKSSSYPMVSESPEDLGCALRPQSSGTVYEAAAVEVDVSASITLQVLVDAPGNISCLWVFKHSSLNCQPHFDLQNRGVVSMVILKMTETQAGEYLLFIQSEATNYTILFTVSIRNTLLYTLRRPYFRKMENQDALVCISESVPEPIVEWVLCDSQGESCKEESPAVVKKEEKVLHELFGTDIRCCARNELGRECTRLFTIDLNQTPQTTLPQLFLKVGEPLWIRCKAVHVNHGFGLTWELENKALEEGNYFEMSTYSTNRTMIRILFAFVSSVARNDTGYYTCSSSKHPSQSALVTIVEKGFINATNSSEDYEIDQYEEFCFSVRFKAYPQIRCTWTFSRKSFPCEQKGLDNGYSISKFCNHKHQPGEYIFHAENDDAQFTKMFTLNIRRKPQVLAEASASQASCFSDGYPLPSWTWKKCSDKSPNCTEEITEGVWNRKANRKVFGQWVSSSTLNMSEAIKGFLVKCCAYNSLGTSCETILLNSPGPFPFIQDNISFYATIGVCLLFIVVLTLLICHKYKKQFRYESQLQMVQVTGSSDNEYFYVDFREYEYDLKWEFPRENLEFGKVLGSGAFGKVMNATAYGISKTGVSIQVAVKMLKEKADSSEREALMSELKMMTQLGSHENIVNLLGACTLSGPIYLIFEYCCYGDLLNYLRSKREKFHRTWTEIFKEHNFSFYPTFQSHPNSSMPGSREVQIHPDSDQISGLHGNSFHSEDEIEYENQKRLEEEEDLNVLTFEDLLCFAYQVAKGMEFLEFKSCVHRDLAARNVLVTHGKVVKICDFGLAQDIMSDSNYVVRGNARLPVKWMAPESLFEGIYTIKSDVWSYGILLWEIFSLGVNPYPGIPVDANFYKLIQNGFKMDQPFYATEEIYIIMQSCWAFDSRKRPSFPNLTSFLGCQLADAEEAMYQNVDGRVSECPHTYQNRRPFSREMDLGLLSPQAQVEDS

[6] = target: KIT (Homo sapiens, UniProt P10721); details: 10 μM
[7] = target: PDGFRA (Homo sapiens, UniProt P16234); details: 10 μM
Sequence of PDGFRA (P16234 24-1089): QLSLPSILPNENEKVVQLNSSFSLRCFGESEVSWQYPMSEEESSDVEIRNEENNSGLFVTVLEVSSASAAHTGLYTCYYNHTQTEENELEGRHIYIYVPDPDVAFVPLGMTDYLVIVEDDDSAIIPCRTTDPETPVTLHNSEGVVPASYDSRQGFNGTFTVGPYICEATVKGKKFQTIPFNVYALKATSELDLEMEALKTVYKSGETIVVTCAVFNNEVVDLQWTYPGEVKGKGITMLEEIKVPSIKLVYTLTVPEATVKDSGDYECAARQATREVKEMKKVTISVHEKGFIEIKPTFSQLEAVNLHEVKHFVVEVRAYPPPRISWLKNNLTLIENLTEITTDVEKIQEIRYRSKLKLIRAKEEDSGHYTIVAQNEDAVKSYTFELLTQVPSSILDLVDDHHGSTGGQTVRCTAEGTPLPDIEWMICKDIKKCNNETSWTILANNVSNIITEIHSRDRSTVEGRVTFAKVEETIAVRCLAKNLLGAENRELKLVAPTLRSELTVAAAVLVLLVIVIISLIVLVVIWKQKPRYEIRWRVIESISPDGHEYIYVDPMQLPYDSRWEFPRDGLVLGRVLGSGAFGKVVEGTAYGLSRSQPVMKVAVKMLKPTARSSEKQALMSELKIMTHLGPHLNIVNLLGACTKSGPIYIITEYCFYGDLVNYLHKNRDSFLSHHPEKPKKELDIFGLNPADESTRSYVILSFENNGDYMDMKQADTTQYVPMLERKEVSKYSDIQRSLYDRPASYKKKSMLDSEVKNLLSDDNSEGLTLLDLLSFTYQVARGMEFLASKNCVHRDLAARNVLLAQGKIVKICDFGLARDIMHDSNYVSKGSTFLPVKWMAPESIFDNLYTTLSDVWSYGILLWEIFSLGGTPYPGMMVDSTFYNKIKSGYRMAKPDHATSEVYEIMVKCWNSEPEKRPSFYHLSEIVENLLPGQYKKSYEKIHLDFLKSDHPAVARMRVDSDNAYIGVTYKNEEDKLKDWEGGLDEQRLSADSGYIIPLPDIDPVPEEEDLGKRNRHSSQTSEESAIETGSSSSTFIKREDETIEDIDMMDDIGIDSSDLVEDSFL

Sequence of KIT (P10721 26-976): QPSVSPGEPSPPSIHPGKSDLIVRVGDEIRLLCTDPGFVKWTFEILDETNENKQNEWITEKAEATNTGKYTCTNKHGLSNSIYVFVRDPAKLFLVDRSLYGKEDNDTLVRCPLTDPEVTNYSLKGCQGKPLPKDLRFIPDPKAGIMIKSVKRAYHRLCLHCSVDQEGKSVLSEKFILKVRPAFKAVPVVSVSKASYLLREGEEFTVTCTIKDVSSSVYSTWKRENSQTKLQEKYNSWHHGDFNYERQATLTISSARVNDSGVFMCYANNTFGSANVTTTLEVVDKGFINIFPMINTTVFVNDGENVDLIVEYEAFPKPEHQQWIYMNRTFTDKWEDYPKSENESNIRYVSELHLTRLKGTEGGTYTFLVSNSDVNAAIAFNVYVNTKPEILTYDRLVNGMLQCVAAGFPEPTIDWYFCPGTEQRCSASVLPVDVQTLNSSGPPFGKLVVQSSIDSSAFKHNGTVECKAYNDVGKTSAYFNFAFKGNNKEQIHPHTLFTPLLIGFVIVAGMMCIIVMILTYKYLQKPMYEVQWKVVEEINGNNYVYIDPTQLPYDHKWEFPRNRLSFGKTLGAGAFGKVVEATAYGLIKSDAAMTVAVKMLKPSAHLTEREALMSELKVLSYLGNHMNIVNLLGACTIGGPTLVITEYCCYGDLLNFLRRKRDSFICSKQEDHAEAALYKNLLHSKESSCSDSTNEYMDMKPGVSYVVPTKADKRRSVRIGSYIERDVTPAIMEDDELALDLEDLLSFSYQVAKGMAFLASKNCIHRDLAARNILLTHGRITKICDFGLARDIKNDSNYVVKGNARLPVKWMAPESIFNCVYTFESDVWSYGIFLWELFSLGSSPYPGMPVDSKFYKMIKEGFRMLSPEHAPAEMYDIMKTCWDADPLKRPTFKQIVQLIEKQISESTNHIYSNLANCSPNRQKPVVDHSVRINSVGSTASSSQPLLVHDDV
T4 sequence (P08631 whole entry): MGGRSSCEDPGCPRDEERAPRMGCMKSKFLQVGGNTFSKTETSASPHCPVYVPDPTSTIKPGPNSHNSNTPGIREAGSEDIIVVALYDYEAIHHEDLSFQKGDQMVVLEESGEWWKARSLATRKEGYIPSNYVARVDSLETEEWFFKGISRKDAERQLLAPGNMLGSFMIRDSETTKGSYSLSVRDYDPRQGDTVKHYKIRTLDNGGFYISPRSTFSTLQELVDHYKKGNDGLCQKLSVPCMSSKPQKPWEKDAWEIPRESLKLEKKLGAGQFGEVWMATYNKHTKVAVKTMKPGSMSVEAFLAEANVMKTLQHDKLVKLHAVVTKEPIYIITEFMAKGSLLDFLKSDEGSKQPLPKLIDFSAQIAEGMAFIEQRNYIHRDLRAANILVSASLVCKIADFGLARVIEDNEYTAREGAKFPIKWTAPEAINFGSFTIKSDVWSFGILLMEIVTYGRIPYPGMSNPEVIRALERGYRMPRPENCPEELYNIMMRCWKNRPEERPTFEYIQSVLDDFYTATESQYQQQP
T3 sequence (O60674 840-1132 limits assumed): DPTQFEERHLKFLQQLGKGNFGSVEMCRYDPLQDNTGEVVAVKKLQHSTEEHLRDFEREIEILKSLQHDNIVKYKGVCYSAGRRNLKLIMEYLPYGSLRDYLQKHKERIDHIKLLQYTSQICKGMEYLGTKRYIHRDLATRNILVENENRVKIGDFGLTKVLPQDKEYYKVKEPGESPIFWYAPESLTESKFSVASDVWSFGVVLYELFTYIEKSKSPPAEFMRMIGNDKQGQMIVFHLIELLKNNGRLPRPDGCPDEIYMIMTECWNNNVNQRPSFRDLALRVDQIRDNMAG
T2 sequence (P51451 whole entry): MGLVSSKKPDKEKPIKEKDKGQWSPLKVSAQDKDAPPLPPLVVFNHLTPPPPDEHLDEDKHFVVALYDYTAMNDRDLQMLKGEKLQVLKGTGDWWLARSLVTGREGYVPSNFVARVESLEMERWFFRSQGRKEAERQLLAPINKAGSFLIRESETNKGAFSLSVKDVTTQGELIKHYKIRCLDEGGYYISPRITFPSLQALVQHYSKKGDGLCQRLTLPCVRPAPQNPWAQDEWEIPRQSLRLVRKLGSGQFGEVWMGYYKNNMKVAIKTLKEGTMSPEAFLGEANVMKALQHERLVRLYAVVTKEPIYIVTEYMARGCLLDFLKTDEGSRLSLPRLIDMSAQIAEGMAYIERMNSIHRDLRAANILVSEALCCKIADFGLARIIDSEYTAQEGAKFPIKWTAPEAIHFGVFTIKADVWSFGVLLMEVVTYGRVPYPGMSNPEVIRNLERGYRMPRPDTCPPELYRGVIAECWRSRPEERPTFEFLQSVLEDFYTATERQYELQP

| SMILES | remaining binding at 10 µM [1] [%] | remaining binding at 10 µM [2] [%] | remaining binding at 10 µM [3] [%] | Percent control ([1]; MERTK, 10 μM) [%] | Percent control [2] [%] | Percent control [4] [%] | Percent control [3] [%] | Percent control ([5]; FLT3(R834Q), 10 μM) [%] | Percent control [6] [%] | Percent control [7] [%] | remaining binding at 10 µM ([1]; MERTK, 10 μM) [%] | Percent control [5] |
| --- | --- | --- | --- | --- | --- | --- | --- | --- | --- | --- | --- | --- |
| C#Cc1cccc(Nc2ncnc3cc(OCCOC)c(OCCOC)cc23)c1 [Erlotinib] | 8.9 | 1.9 | 27 | – | – | – | – | – | – | – | – | – |
| Cc1ccc(NC(=O)c2ccc(CN3CCN(C)CC3)cc2)cc1Nc1nccc(-c2cccnc2)[n+]1[Pt-2]1([Cl])[NH2+]C2CCCCC2[NH2+]1 (stereo not shown) [1b, oxaliplatin-imatinib] | – | – | – | 100 | 12 | 82 | 100 | 94 | 0.2 | 1.2 | – | – |
| Cc1ccc(NC(=O)c2ccc(CN3CCN(C)CC3)cc2)cc1Nc1nccc(-c2cccnc2)n1 [Imatinib, reference compound] | – | – | 100 | 100 | 4.9 | 100 | – | 100 | – | – | – | – |
| COc1cc2c(Nc3ccc(Br)cc3F)ncnc2cc1OCC1CCN(C)CC1 [Vandetanib, reference compound] | – | 0.7 | 100 | – | – | – | – | – | – | – | 12.3 | – |
| COc1cc2c(Nc3ccc(Br)cc3F)[n+]([Pt-2]3([Cl])[NH2+]C4CCCCC4[NH2+]3)cnc2cc1OCC1CCN(C)CC1 (stereo not shown) [3b, oxaliplatin-vandetanib] | – | – | – | 17 | 1.4 | – | 100 | – | 1.1 | 5.7 | – | 89 |
| C#Cc1cccc(Nc2c3cc(OCCOC)c(OCCOC)cc3nc[n+]2[Pt@SP2-2]([NH3+])([NH3+])[Cl])c1 [2a, cisplatin-erlotinib] | – | – | – | 100 | 41 | 64 | 46 | – | 86 | 100 | – | 80 |
